The subject of data set [1] is antibody-producing yeast strain (ona02306 strain). Particulars: for amount of antibody production: control 0.8 mg/l, FIG. 5.
Experimental: Control culture was carried out at an agitation speed of 310 rpm, an amplitude of 50 mm, at 30° C. for 2 days, 100 μl of 2× YP-P6-GG medium was added, and 100 μl of 2× YP-P6-GG medium was further added on day 3. In the case of culture involving single addition of a rhodanine-3-acetic acid derivative 1c, culture was carried out at an agitation speed of 310 rpm, an amplitude of 50 mm, at 30° C. for 2 days, 100 μl of 2× YP-P6-GG medium was added, and 100 μl of 2× YP-P6-GG medium containing 20 μM of 1c was further added on day 3. In the case of culture involving addition of a rhodanine-3-acetic acid derivative 1c twice, culture was carried out at an agitation speed of 310 rpm, an amplitude of 50 mm, at 30° C. for 2 days, 100 μl of 2× YP-P6-GG medium containing 20 μM of 1c was added, and 100 μl of 2× YP-P6-GG medium containing 20 μM of 1c was further added on day 3.
Yeast cells were removed from the culture product via centrifugation at 2,700×g and 4° C. for 5 minutes, and the resulting culture supernatant was designated as a sample of secreted antibody. The secreted and produced antibodies were subjected to quantitative assay via sandwich ELISA. TRAIL receptor proteins that were antigens of the anti-TRAIL receptor antibodies were adsorbed on a 96-well plate, the sample of secreted antibody was added, and detection was carried out using a peroxidase-labeled human IgG specific Fc antibody (Peroxidase-labeled affinity purified antibody to human IgG (Fc) (KPL, 04-10-20)) and the ABTS peroxidase substrate (KPL, 50-66-01).
Western blotting was carried out as follows. After the protein was subjected to SDS-PAGE under reducing and non-reducing conditions, the separated protein was blotted to a PVDF membrane, and the antibody heavy chain and the light chain were detected using Anti-human IgG (γ-chain specific) (Sigma, I-3382) and Goat anti human kappa b&f affinity purified (Bethyl, A-80-115A) as the primary antibodies. Peroxidase conjugated affinity purified anti-goat IgG (H&L) (Rabbit) (Rockland, #605-4313) was used as the secondary antibody. […]
Data set [2] concerns S. cerevisiae ZUO1/YGR285C strain. Particulars: control strain.
Experimental: The S. cerevisiae ZUO1/YGR285C strain was sowed in 5 ml of YPAD medium (YPD medium containing 0.04% adenine (Sigma)), and yeast cells resulting from overnight culture at 30° C. and 310 rpm were used.
ST medium (500 μl) (Yeast Nitrogen Base and Ammonium sulfate medium containing 2% glucose, 0.04% adenine, and 0.3M KCl and lacking uracil and leucine (Sigma)) was applied onto a 96-deep well plate (Greiner, 780271), the transformant was sowed with the use of a toothpick, the top of the plate was sealed with CO2-permeable plate sealers (Greiner, 676051), and culture was carried out at an agitation speed of 310 rpm, an amplitude of 50 mm, at 30° C. for 3 days. Control culture was carried out by applying 1 ml of YPAD medium to a 96-deep well plate (Greiner, 780271). […] The culture solution that had been cultured in ST medium was sowed to a final concentration of 5%, and the top of the plate was sealed with CO2-permeable plate sealers (Greiner, 676051). Thereafter, culture was carried out at an agitation speed of 310 rpm, an amplitude of 50 mm, at 30° C. for 3 days. The culture supernatant was prepared from the culture solution and it was designated as a sample containing an antibody secreted and produced by yeast. […]
Data set [3] has as its system O. minuta PMT4-deficient strain (ona98808 strain). Particulars: 0.25 μM 1c (final concentration), FIG. 26.
Experimental: The antibody-producing strain was cultured in the following manner. With the use of 2× YP-P6-GG medium (the medium was prepared by dissolving 20 g of Difco yeast extract and 40 g of Bacto peptone in 900 ml of pure water, sterilizing the solution via steaming under pressure, and adding 100 ml of separately sterilized 10× phosphate buffer (pH 6.0) (1M KH2PO4, 0.15M (NH4)2SO4, 0.375N KOH), 10 ml of a separately sterilized 50% glucose solution, and 25 ml of separately sterilized 80% glycerine), 800 μl of 2× YP-P6-GG medium was introduced into a 96-deep well plate (Greiner, 780271), the strains were sowed with the use of a toothpick, and the top of the plate was sealed with CO2-permeable plate sealers (Greiner, 676051). […]
Yeast cells were removed from the culture product via centrifugation at 2,700×g and 4° C. for 5 minutes, and the resulting culture supernatant was designated as a sample of secreted antibody. The secreted and produced antibodies were subjected to quantitative assay via sandwich ELISA. […] After the protein was subjected to SDS-PAGE under reducing and non-reducing conditions, the separated protein was blotted to a PVDF membrane, and the antibody heavy chain and light chain were detected using Anti-human IgG (γ-chain specific) (Sigma, I-3382) and Goat anti human kappa b&f affinity purified (Bethyl, A-80-115A) as the primary antibodies. […]
For a further data set, the system named is M. lysodeikticus. The data set can be described thus: Bacteriolytic activity of secreted human lysozyme. It counts as biochemical. The settings on record: Table 3. From the text: The expression vector for the aMF secretory signal-fused hLyz gene, onaP21808, was introduced into the ona01206 strain into which no chaperone combination was introduced, a strain that constitutively expresses a combination of O. minuta-derived chaperone genes; i.e., OmPDI1, OmERO1, and OmKar2, (i.e., the ona44607 strain), and a strain that constitutively expresses a combination of human-derived chaperone genes; i.e., synthetic hPDI, synthetic hERO1-Lβ, and synthetic hGRP78, (i.e., the ona68908 strain). Three clones were arbitrarily selected from the resulting colonies and cultured.
Also, bacteriolytic activity was assayed in the following manner. Bacteria of M. lysodeikticus was used as a substrate, and it was suspended in 50 mM phosphate buffer to prepare a substrate solution with a concentration of 0.16 mg/ml. To 240 μl of this substrate solution, 10 μl of a culture supernatant (the secreted human lysozyme) was added, and the mixture was incubated at room temperature for 10 minutes. Thereafter, the absorbance at 450 nm was assayed. […] Thus, a unit of lysozyme activity was defined as the amount of an enzyme that is necessary for the absorbance at 450 nm to be lowered by 0.001 per minute. Also, the total amount of proteins in the culture supernatant was assayed using the DC protein assay kit II (Bio-Rad, 500-0112JA) using bovine serum albumin as the standard.

Where “and” joins values, the source holds several entries; their conditions need not be identical. Equal values may be shown once. Read-outs that look alike come from different tables or passages of the source.

Consider “5-[[3,4-(1-phenylmethoxy)phenyl]methylene]-4-oxo-2-thioxo-3-thiazolidineacetic acid [rhodanine-3-acetic acid derivative 1c]”, for which the “high-molecular-weight antibody heavy chain (Western blot, reducing electrophoresis)” value in data set [1] (addition of PMT inhibitors to culture, FIG. 6) is listed as “decreased”. For the same substance, the “amount of antibody production” value is recorded as “approximately 1.9 mg/l” in data set [1] (addition of PMT inhibitors twice (100 μl medium containing 20 μM 1c on day 2 and day 3)); “approximately 1.7 mg/l” in data set [1] (single addition of PMT inhibitors (100 μl medium containing 20 μM 1c on day 3)). Besides, in data set [2] (1c final concentration 10 μM, versus control culture), the “increase of amount of antibody secretory production when addition of an O-sugar chain was suppressed” value is listed as “approximately 2.5 times”. In addition, in data set [2] (O-sugar chain addition suppressed (1c final concentration 10 μM), without 1c 3.9 ng/ml, FIG. 14), the “amount of antibody secretory production” value came out at 10 ng/mL. Moreover, the “improvement of the amount of production” value in data set [3] is “approximately 13%”.

In the case of “Ona68908: secreted human lysozyme sample from strain expressing synthetic hPDI, synthetic hERO1-Lβ, and synthetic hGRP78”, in the data set on M. lysodeikticus (culture supernatant, clones 1 to 3, 10 minutes at room temperature, absorbance at 450 nm), the Bacteriolytic activity is 36.0 unit/ml and 29.3 unit/ml and 33.3 unit/ml. The Specific activity with M. lysodeikticus (per total amount of protein in culture supernatant, clones 1 to 3) is 0.68 unit/mg and 0.61 unit/mg and 0.65 unit/mg.

The record behind these values is patent US8409825B2, “Method for high-level secretory production of protein” (National Institute of Advanced Industrial Science and …, priority 2007, dated 2013).
